Patent publication US20250360101A1, “OSTEOCLAST DIFFERENTIATION INHIBITOR CONTAINING UROLITHIN” (DAICEL CORPORATION, priority 2020, published 2025)

Legend:
[1] = test system: mouse bone marrow-derived hematopoietic stem cells; experiment: Osteoclast differentiation inhibition test (M-CSF/RANKL induction, TRAP staining) from hematopoietic stem cells; format: cell-based; conditions: for number of osteoclasts (relative value): 8 days culture, ratio of TRAP-stained area to sample-free group (Comparative Example = 100%); for Osteoclast differentiation (significance vs Comparative Example): Tukey's test, P not more than 0.1%
Description: (§1) In the present Examples, statistical analysis was carried out using commercially available software (StatMate3, ATMS). Except for Example 3 and Comparative Example 3, Tukey's test was used for comparison in terms of the action and effect. In all tests, a significant difference was assumed at a P value of not more than 0.1%. In Example 3 and Comparative Example 3, Dunnett's test was used for comparison in terms of the action and effect. A significant difference was assumed at a P-value of not more than 1%.
Mouse femurs and tibias were removed, and a portion of about 2 mm was removed from each bone end by cutting. The long bones were placed in a 0.2-mL microtube, and centrifuged at 2000×g, followed by collecting bone marrow fluid. After suspending the bone marrow fluid in 4 ml of α-MEM medium (#. 11900-016, Gibco) supplemented with 10% FBS (JBS-011115), the resulting suspension was plated on a 6-cm dish. After incubating the plate at 37° C. under 5% CO2 for 24 hours, the medium was collected. The floating cells in the medium were isolated as hematopoietic stem cells.
The isolated mouse bone marrow-derived hematopoietic stem cells were plated on a 96-well plate at 4.0×10^4 cells/well. At the same time as the plating, 30 ng/ML M-CSF (macrophage-colony stimulating factor, R&D Systems) and 50 ng/mL RANKL (receptor activator of nuclear factor κ-B ligand, PeproTech Inc.) as inducers of differentiation into osteoclasts were added to all wells. Together with the differentiation inducers, urolithin A (1, 10, or 25 μM) was added. Culture was carried out by leaving the plate to stand in an incubator at 37° C. under 5% CO2 for 8 days. The medium in each well was removed, and the cells were fixed by being left to stand in […] Mildform for 10 minutes, followed by three times of washing with pure water. Thereafter, 50 μL of TRAP staining solution (SIGMA) was added to each well, and the plate was incubated in a shaded state for 1 hour at 37° C. The TRAP staining solution in each well was discarded, and the well was washed with pure water, followed by adding 50 μL of Mayer's hematoxylin solution thereto. The plated was left to stand for 2 minutes to perform nuclear staining. The plate was washed 10 times with pure water, and then dried for one or more days. The total number of multinucleated osteoclasts having three or more nuclei present on each well was counted. The stained image was scanned using a scanner (EPSON, GT-X970, 800 pixels/inch), and the stained area was measured using image analysis software Image J.
The same operation as in Example 1 was carried out except that urolithin A was not added.
The ratio of the stained area in each sample-addition group (Example 1) to the stained area in the sample-free group (Comparative Example 1) was calculated to determine the number of osteoclasts (relative value). […] The conditions marked with “*” in Table 2 and FIG. 1 are the conditions under which the significant differences were found compared to Comparative Example 1.
The same operation as in Example 1 was carried out except that urolithin B was used instead of urolithin A, and that urolithin B was added at 25 or 50 μM.
The same operation as in Example 1 was carried out except that urolithin B was not added.
The ratio of the stained area in each sample-addition group (Example 2) to the stained area in the sample-free group (Comparative Example 2) was calculated to determine the number of osteoclasts (relative value). […] The condition marked with “*” in Table 3 and FIG. 2 is the condition under which the significant difference was found compared to Comparative Example 2.

[2] = test system: macrophages prepared by differentiation from the isolated mouse bone marrow-derived hematopoietic stem cells; experiment: Osteoclast differentiation inhibition test (M-CSF/RANKL induction, TRAP staining) from macrophages; format: cell-based; conditions: 10 μM; 3 days culture; ratio of TRAP-stained area to sample-free group (Comparative Example 3 = 100%)
Description: as §1
Mouse femurs and tibias were removed, and a portion of about 2 mm was removed from each bone end by cutting. The long bones were placed in a 0.2-mL microtube, and centrifuged at 2000×g, followed by collecting bone marrow fluid. […]
The macrophages prepared by differentiation from the isolated mouse bone marrow-derived hematopoietic stem cells were plated on a 96-well plate at 4.0×10^4 cells/well. […] The total number of multinucleated osteoclasts having three or more nuclei present on each well was counted. The stained image was scanned using a scanner (EPSON, GT-X970, 800 pixels/inch), and the stained area was measured using image analysis software Image J. […]
The ratio of the stained area in each sample-addition group (Example 3) to the stained area in the sample-free group (Comparative Example 3) was calculated to determine the number of osteoclasts (relative value). […]

Row | Structure (SMILES) | number of osteoclasts (relative value) ([1]; 1 μM) | number of osteoclasts (relative value) ([1]; 10 μM) | Osteoclast differentiation (significance vs Comparative Example) ([1]; 10 μM) | number of osteoclasts (relative value) ([1]; 25 μM) | Osteoclast differentiation (significance vs Comparative Example) ([1]; 25 μM) | number of osteoclasts (relative value) [2] | number of osteoclasts (relative value) ([1]; 50 μM)
1 | O=c1oc2cc(O)ccc2c2ccc(O)cc12 [Urolithin A] | 88% ± 9% | 49% ± 6% (*) | significantly inhibited | 26% ± 4% (*) | significantly inhibited | 50% ± 5% (*) | –
2 | O=c1oc2cc(O)ccc2c2ccccc12 [Urolithin B] | – | – | – | 87% ± 13% | – | – | 40% ± 5% (*)
